From PMC4660440 (Scientific Reports, 2015)

Tests used:
HeLa = test: MTT cytotoxicity assay, HeLa; format: cell-based; details: Homo sapiens, HeLa, 48 h, drug exposure 48 h, mean ± SD (n = 3), read-out: Cytotoxic activity (IC50) HeLa
Description: (§1) HeLa, BGC823, A-549, MCF-7 and HT-7702 cell lines were obtained from the ATCC. […] Tumor cells (3500–13,000) were seeded into 96-well microtest plates in 100 μL of culture medium per well, incubated for 48 h in the presence or absence of test compounds (8 different concentrations ranging from 100 to 0.01 μg/mL). For quantitative estimation of cytotoxicity, the (MTT) method was used, essentially performed as described previously. Briefly, cells were washed twice with PBS, fixed for 15 min in 1% glutaraldehyde solution, rinsed twice in PBS, and stained in 0.5% MTT solution for 4 h at 37 °C. […] The initial seeding densities varied among the cell lines to ensure a final absorbance reading in control (untreated) cultures within the range of 0.6–0.8 A492 units. Drug exposure was carried out for 2 days, and the IC50 value, i.e., the drug concentration that decreased the absorbance by 50%, was extrapolated from dose-response data. Each test was performed in triplicate, and the absorbance readings between the triplicates varied by no more than 10%.

BGC-823 = test: MTT cytotoxicity assay, BGC-823; format: cell-based; details: Homo sapiens, BGC-823, drug exposure 48 h, mean ± SD (n = 3), read-out: Cytotoxic activity (IC50) BGC-823
Description: as §1

MCF-7 = test: MTT cytotoxicity assay, MCF-7; format: cell-based; details: Homo sapiens, MCF7, drug exposure 48 h, mean ± SD (n = 3), read-out: Cytotoxic activity (IC50) MCF-7
Description: as §1

HeLa cells [1] = test: Cell cycle analysis by flow cytometry (PI); format: cell-based; details: for Effect on HeLa cell cycle: 0.1, 1.0, 5.0 μM, 6, 12, 24, 48 h; for Ratio of cell cycle arrest (of total cells): 0.1 μM, 6, 12, 24 and 48 h
Description: The HeLa cell line was used for cell cycle analysis. Progression through the cell cycle was assessed by flow cytometry DNA determination with Propidium Iodide (PI). […] Flow cytometric analysis was performed using a BD accur C6 flow cytometer. Analysis was with Mod FIT software.

[2] = MTT cytotoxicity assay, normal hepatic cell line HL-7702; format: cell-based; details: HL-7702 normal hepatic cells, human normal hepatic immortal cell line, drug exposure 48 h, mean ± SD (n = 3), read-out: Cytotoxic activity (IC50) HL-7702
Description: as §1

A549 = test: MTT cytotoxicity assay, A549; format: cell-based; details: Homo sapiens, A549, drug exposure 48 h, mean ± SD (n = 3), read-out: Cytotoxic activity (IC50) A549
Description: as §1

HeLa cells [3] = test: Annexin V-FITC/PI apoptosis assay; details: 0.1 μM, 6, 12, 24 and 48 h
Description: The HeLa cell line was used for cell apoptosis. Cells (20000 per mL) were incubated with several concentrations of the compounds or drugs for 6–48 h, and incubated in DMEM medium supplemented with 12% fetal calf serum (FCS), 2 mM L -glutamine, and 100 mg/L penicillin G and 100 mg/L streptomycin at 37 °C and 5% CO2. The cells were washed with PBS twice, centrifuged at 206 g for 5 min, and 5–10[5] cells were collected. Binding buffer suspension (500 μL) was added to the cells, and then 5 μL of the FITC-Annexin V mix was added. Next, 10 μL of the PI mix was added, and the suspension was mixed and kept at room temperature for 30 min in the dark. Analysis was with a BD accur C6 flow cytometer.

[4] = system: BimEL, ATR, caspase 3, caspase 8, caspase 9, PARP in HeLa cells; test: Western blot analysis of apoptosis proteins; format: cell-based; details: 5 μM, 24 h treatment, untreated control 0%, etoposide-induced activation 100%
Description: For electrophoresis, the proteins were separated by sodium dodecyl sulfate–polyacrylamide gel electro-phoresis (SDS–PAGE). The proteins were then transferred to a nitrocellulose membrane, which was blocked with 5% skimmed milk in phosphate buffered saline Tween-20 (PBST). A specific primary antibody was added to bind the target proteins for either 1 h at room temperature or overnight at 4 °C. A horseradish peroxidase (HRP) conjugated secondary antibody was added to the membrane after the primary antibody was washed off. All signals were detected after the HRP was activated by enhanced chemiluminescence. The band intensities of Western results were quantitated with the Image Quant program (Molecular Dynamics Inc.), analyzed and graphed. The untreated controls and the etoposideinduced activation of signaling molecules were taken as 0% and 100%, respectively. Statistic analysis was performed with the uni-polar, paired Student t-test. Data were considered significant when P value was less than 0.05.

[5] = system: microtubules in HeLa cells; test: Immunofluorescence of cellular microtubules; format: cell-based; details: 12 and 24 h, compared with negative control 0.1% DMSO
Description: Cells (20000 per mL) were plated a onto 6-well tissue culture plates containing 12 mm round coverslips, cultured overnight, and then treated with different drugs at […] concentrations or drug vehicle (0.1% DMSO) for 12 h and 24 h. Attached cells were permeabilized. Cytoskeletons were incubated with α-tubulin, washed twice, and incubated with FITC goat anti-mouse immunoglobulins. The coverslips were washed, and 1 μg/mL DAPI to stain chromatin was added. The mixture was incubated for 30 min. After the samples were washed, they were examined and photographed using an Olympus epifluorescence microscope. The images were recorded with a Perkin Elmer camera.

`COc1ccc(N[C@@H]2c3cc4c(cc3[C@@H](c3cc(OC)c(O)c(OC)c3)[C@H]3C(=O)OC[C@@H]32)OCO4)cc1` [Compound 12′] showed an IC50 (HeLa) of 24.46 ± 0.16 µM, an IC50 (BGC-823) of 36 ± 3.21 µM and an IC50 (MCF-7) of 18800 ± 240 nM. For the same compound, the “Effect on HeLa cell cycle” value (HeLa cells [1]) was “arrested at the G2/M phase”, the “Ratio of cell cycle arrest (of total cells)” value (HeLa cells [1]; HeLa) was “less than 10%” and the IC50 at 48 h [2] was 28.6 ± 2.35 µM. The IC50 (A549) was 22.3 ± 1.21 µM and the “Ratio of apoptotic Hela cells (of total cells)” value (HeLa cells [3]) was “less than 15%”.
Work on `COc1ccc(Cl)cc1N[C@@H]1c2cc3c(cc2[C@@H](c2cc(OC)c(O)c(OC)c2)[C@H]2C(=O)OC[C@@H]21)OCO3` [Compound 15′] yielded an IC50 (HeLa) of 5.89 ± 0.48 µM, an IC50 (BGC-823) of 27.1 ± 1.17 µM and an IC50 (MCF-7) of 2160 ± 370 nM. For the same compound, the IC50 at 48 h [2] was 67.6 ± 4.32 µM and the IC50 (A549) was 29.7 ± 1.67 µM.
Compound `COc1ccc(F)cc1N[C@@H]1c2cc3c(cc2[C@@H](c2cc(OC)c(OC)c(OC)c2)[C@H]2C(=O)OC[C@@H]21)OCO3` [Compound 16] has an IC50 (HeLa) of 1.46 ± 0.19 µM, an IC50 (BGC-823) of 1.37 ± 0.17 µM and an IC50 (MCF-7) of 1920 ± 230 nM. It also gave an IC50 at 48 h [2] of 27.7 ± 0.77 µM and an IC50 (A549) of 1.43 ± 0.09 µM.
Compound `COc1ccc(F)cc1N[C@@H]1c2cc3c(cc2[C@@H](c2cc(OC)c(O)c(OC)c2)[C@H]2C(=O)OC[C@@H]21)OCO3` [Compound 16′] has an IC50 (HeLa) of 1.72 ± 0.3 µM, an IC50 (BGC-823) of 1.32 ± 0.16 µM and an IC50 (MCF-7) of 1530 ± 70 nM. For the same compound, the IC50 at 48 h [2] was 24.3 ± 0.69 µM and the IC50 (A549) was 3.17 ± 0.49 µM.
In the case of `COc1ccc(N[C@@H]2c3cc4c(cc3[C@@H](c3cc(OC)c(OC)c(OC)c3)[C@H]3C(=O)OC[C@@H]32)OCO4)cc1Br` [Compound 17, 4β-NH-(3-bromide-4-methoxyaniline)-4-deoxy-podophyllotoxin], the IC50 (BGC-823) is reported as 7.91 ± 0.59 µM, the “Extent of compound-induced BimEL” value [4] is reported as 15% and the “Extent of compound-induced PARP” value [4] is reported as 27%. For the same compound, the “Extent of compound-induced caspase 3” value [4] was 37%, the “Extent of compound-induced caspase 9” value [4] was 0% and the IC50 (MCF-7) was 10100 ± 180 nM. For the same compound, the “Effect on HeLa cell cycle” value (HeLa cells [1]) was “arrested at the G2/M phase”, the “Ratio of cell cycle arrest (of total cells)” value (HeLa cells [1]; HeLa) was “less than 10%” and the “Total cell cycle arrest percentage (right peak of histogram)” value (HeLa cells [1]; HeLa, 5.0 μM, 48 h) was 86.5%. For the same compound, the IC50 at 48 h [2] was 62.4 ± 1.96 µM, the IC50 (A549) was 9.08 ± 0.26 µM and the “Ratio of apoptotic Hela cells (of total cells)” value (HeLa cells [3]) was “less than 15%”. The “Cellular depolymerization of microtubules” value [5] was “able to cause cellular depolymerization of microtubules”.
